Key:
[1] = dosed orally; cited from earlier work
HEK293 cells = test: HEK293 cytotoxicity assay (CC50, CellTiterGlo); assay type: cell-based, human
Source text: Some exemplary assays and examples for assessing therapeutic efficacy, e.g., anticancer effects, of exemplary compounds of the invention are described herein or well known in the art. HEK293 is a human kidney cell line, and efficacy on HEK293 is considered to be predictive of usefulness for therapeutic treatment.
HEK293 cells were obtained from American Type Culture Collection (ATCC) (Rockville Maryland). Cells were maintained in Dulbecco's modified Eagle's medium (DMEM) (Invitrogen, Carlsbad, CA) with 10% fetal bovine serum (FBS), 10 mM HEPES and 1 mM sodium pyruvate. Cells were grown at 37° C. in a humidified incubator with a gas phase of 5% C02. Cells were grown for 24 hours in a Tripleflask (NUNC) to ˜95% confluence and then resuspended for dispensing at 125,000 cells/mL of DMEM, 10% FBS, 10 mM Hepes and 1 mM sodium pyruvate.
HEK293 cells were seeded in 96 well microtiter plates at 10000 cells/well. After 24 hours of incubation an equal volume of fresh media containing test compounds at given concentrations was added. Plates were then incubated and cells were allowed to proliferate for 48 hours at 37° C., 95% humidity, and 5% C02. […] A solution of Promega CellTiterGlo (100 microliters) was added by Thermo Combi and the plates were allowed to sit for 10 minutes before reading on a Perkin-Elmer EnVision with US LUM settings for 0.1 sec per well. […]

NC(=O)c1ncn([C@@H]2O[C@H](CO)[C@@H](O)[C@H]2O)c1N [AICAR, 5-amino-1-D-ribofuranosyl-1H-imidazole-4-carboxamide]
bioavailability [1]: very low

COP(=O)(OC)OC[C@H]1O[C@@H](n2cnc(C(N)=O)c2N)[C@H](O)[C@@H]1O [SB00024]
activity on HEK293 cells (CC50 assay) (HEK293 cells; at 500 uM): inactive

NC(=O)c1ncn([C@@H]2O[C@H](COP(=O)(O)Oc3ccc([N+](=O)[O-])cc3)[C@@H](O)[C@H]2O)c1N [SB00039]
potency relative to AICAR on HEK293 cells (HEK293 cells; ratio of potency (CC50) versus AICAR): roughly 100 times

From US11779590B2, “AMP-activated protein kinase activating compounds and uses thereof” (Skylark Bioscience LLC, priority 2020, dated 2023)
